Like-named read-outs stand apart in the source and are kept apart here.
Experiments:
[1] = Octanol/water partition (logP) of compound 1b; type: physicochemical; conditions: for logP at 24 h: octanol/water
Experimental: Experimental. A 10 µM or 20 µM solution of 1b was prepared in 5 ml of octanol and mixed with 5 ml distilled water at 25°C The solution was stirred and was left to settle for 24 hours before the absorbance of the octanol fraction was measured. The values obtained were fitted on a calibration curve prepared by measuring the absorbance of 1b in octanol at various concentrations (2.5, 10, 15, 20 and 30 µM). The logP was calculated using the following formula: […]
Where [1b]oct is the concentration of 1b in octanol and [1b]water is the concentration of 1b in water.

AMPK = experiment: Immunoblots of AMPK T172 and ACC S79 phosphorylation, KP4 cells; type: cell-based, human; conditions: 15 µM, 24 h
Experimental: (§1) Figure 3 Effects of biguanides on cell proliferation and viability in pancreatic cancer cells. […]. […] | decimal sign comma or point
. […]. Experimental. Cells were rinsed twice with 1X PBS, and lysed in Laemmli 2x (4% SDS, 20% glycerol, 120 mM Tris-HCl pH 6.8). Laemmli extracts were boiled for 5 minutes, then the concentration was assessed with NanoDrop (ThermoFisher) and equalized between samples. Lysates were supplemented with 10% beta-mercaptoethanol and 0.05% bromophenol blue and boiled again for 5 minutes. 25 µg of extracts were loaded on SDS-PAGE then transferred on nitrocellulose membranes for 1h30 at 130V. Membranes were rinsed in 1XPBS1-0.05% Tween-20 then blocked for 1h in 1XPBS, 0.05%-Tween-20 5% Milk. Membranes were rinsed again 3 x 10 min in PBS-Tween, then incubated overnight at 4°C with the following primary antibodies in 1XPBS-0.1%BSA, 0.02%Sodium azide: anti-phospho-AMPK T172 (1:1000, Rabbit, 2531S, Cell Signaling), anti-AMPKalpha (1:1000, Rabbit, 2532, Cell Signaling), anti-phospho-ACC S79 (1:1000, Rabbit Polyclonal, 3661S, Cell Signaling), or incubated for 1h at RT with anti-beta-Actin (1:2000, Mouse, 3700, Cell Signaling). […]

HPNE-hTERT cells = experiment: Cell death assay (trypan blue), HPNE-hTERT cells; type: cell-based, human; conditions: 15 µM for 24 h
From the text: as §1
(§2) Experimental. […] At the end of the treatments, adherent cells were recovered by trypsinization, along with floating cells recovered by centrifugation of the culture medium. Floating and adherent cells were pooled together. The faction of dead cells was quantified by counting the proportion of trypan blue-positive (dead cells) and the proportion of living cells (trypan blue-negative).

KP4 cells = experiment: Cell death assay (trypan blue), KP4 cells; type: cell-based, human; conditions: 15 µM for 24 h
From the text: as §2

[2] = Solubility in methanol and DMSO; type: physicochemical; conditions: even at high concentrations
KP4 tumor sections = experiment: KI67 and cleaved caspase 3 staining of tumor sections from treated mice; type: in vivo, nude mice; conditions: 50 mg/kg, tumor sections after treatment
From the text: (B) Body weight of mice seven days after treatment. […] Representative images shown. Scale bar = 100 µm.
To assess the mechanism of the antitumor activity, we stained tumor sections obtained from animals after the treatment protocol for proliferation marker KI67 and apoptosis marker cleaved caspase 3, and quantified the data according to the scoring key in Fig. 5C. […] However, there were no significant differences in staining for cleaved caspase 3 […].

[3] = Lucigenin assay, chloride transport in EYPC liposomes; conditions: lucigenin-containing liposomes
From the text: Phospholipid vesicles can be used as models for studying membrane insertion and permeabilization. Using an anion-selective probe in synthetic phospholipid liposomes, anion transport can be monitored by fluorescence. […] This basification was further enhanced with the addition of a base pulse to the external solution at 300 s, indicating either a transport of protons to the extravesicular solution, or the transport of hydroxyls to the intravesicular solution. This was also reported for alkylbiguanidium salts and was described as an electrogenic process, i.e. the transmembrane transport of an ion without the balance of the charge through the movement of another ion, which usually results in a charge transfer. […] […]. The transport of H^+/OH^− ions across the membrane is an electrogenic mechanism that usually causes the depolarization of the electrochemical gradient across phospholipid membranes. When EYPC-LUVs liposomes containing intravesicular K^+ ions are bathing in an extravesicular solution containing Na^+ ions a small membrane potential is generated at their membranes, and the fluorescence of Safranin-O can be used as a membrane potential probe. […].
Experimental. […] The fluorescence was monitored for 350 s.

cancer cells = conditions: cited from earlier work

| SMILES | [1b] in octanol ([1]; Partition 1 (10 µM)) | [1b] in water ([1]; Partition 1 (10 µM)) | [1b] in octanol ([1]; Partition 2 (20 µM)) | [1b] in water ([1]; Partition 2 (20 µM)) | logP at 24 h ([1]; Partition 1 (10 µM), 25°C, 24 hours, read-out: logP) | logP at 24 h ([1]; Partition 2 (20 µM), 25°C, 24 hours, read-out: logP) | logP at 24 h ([1]; logP (mean of partitions 1 and 2), 25°C, spread ± 0.10 in its own column) | logP at 24 h ([1]; read-out: logP) | AMPK activation (phosphorylation of AMPK T172 and ACC) (AMPK) | Effect on the fraction of dead HPNE cells (HPNE-hTERT cells) | Increase of the fraction of dead KP4 cells (KP4 cells) | Solubility in methanol and DMSO [2] | KI67 staining in tumors (KP4 tumor sections) | Chloride transport across EYPC-LUV membrane [3] | Reported antiproliferative concentration in vitro (cancer cells) |
| --- | --- | --- | --- | --- | --- | --- | --- | --- | --- | --- | --- | --- | --- | --- | --- |
| N=C(N)NC(=N)NCc1ccc(C#Cc2ccccc2)cc1 [1b, 4-(phenylethynyl)benzylbiguanide] | 6.91 µM | 3.09 µM | 15.15 µM | 4.85 µM | 0.35 | 0.5 | 0.42 | 0.4 | induced AMPK activation | did not increase the fraction of dead cells | ~ 20% | good methanol and DMSO solubility even at high concentrations | reduced KI67 staining in tumors | did not transport chloride | – |
| CN(C)C(=N)NC(=N)N [metformin, 1,1-dimethylbiguanide, reference compound] | – | – | – | – | – | – | – | – | – | – | – | – | – | – | 5 mM |
